From US7786137B2, “Bicyclic derivatives as modulators of ion channels” (Vertex Pharmaceuticals Incorporated, priority 2005, dated 2010)

Target: NaV1.3 (Homo sapiens, UniProt Q9NY46)
Test: VIPR optical membrane potential assay, NaV1.3 inhibition
Format: cell-based
Design: expressed in transfected cells; host or cells: HEK293
Details: activity against NaV 1.3 channel
Description: Antagonist properties of test compounds were assessed as follows. Cells expressing the NaV of interest were placed into microtiter plates. After an incubation period, the cells were stained with fluorescent dyes sensitive to the transmembrane potential. The test compounds were added to the microtiter plate. The cells were stimulated with either a chemical or electrical means to evoke a NaV dependent membrane potential change from unblocked channels, which was detected and measured with trans-membrane potential-sensitive dyes. Antagonists were detected as a decreased membrane potential response to the stimulus.
The following is an example of how NaV1.3 inhibition activity is measured using the optical membrane potential method#2. Other subtypes are performed in an analogous mode in a cell line expressing the NaV of interest.
HEK293 cells stably expressing NaV1.3 are plated into 96-well microtiter plates. After an appropriate incubation period, the cells are stained with the voltage sensitive dyes CC2-DMPE/DiSBAC2(3) as follows.
2× CC2-DMPE=20 μM CC2-DMPE: 10 mM CC2-DMPE is vortexed with an equivalent volume of 10% pluronic, followed by vortexing in required amount of HBSS containing 10 mM HEPES. Each cell plate will require 5 mL of 2× CC2-DMPE. 50 μL of 2× CC2-DMPE is to wells containing washed cells, resulting in a 10 μM final staining concentration. The cells are stained for 30 minutes in the dark at RT.
2× DISBAC2(3) with ABSC1=6 μM DISBAC2(3) and 1 mM ABSC1: The required amount of 10 mM DISBAC2(3) is added to a 50 ml conical tube and mixed with 1 μL 10% pluronic for each mL of solution to be made and vortexed together. Then HBSS/HEPES is added to make up 2× solution. Finally, the ABSC1 is added.
The 2× DiSBAC2(3) solution can be used to solvate compound plates. Note that compound plates are made at 2× drug concentration. Wash stained plate again, leaving residual volume of 50 μL. Add 50 μL/well of the 2× DiSBAC2(3) w/ABSC1. Stain for 30 minutes in the dark at RT.
The instrument comprises a microtiter plate handler, an optical system for exciting the coumarin dye while simultaneously recording the coumarin and oxonol emissions, a waveform generator, a current- or voltage-controlled amplifier, and a device for inserting electrodes in well. Under integrated computer control, this instrument passes user-programmed electrical stimulus protocols to cells within the wells of the microfilter plate.
Insert or use electrodes into each well to be assayed.
Use the current-controlled amplifier to deliver stimulation wave pulses for 3 s. Two seconds of pre-stimulus recording are performed to obtain the un-stimulated intensities. Five seconds of post-stimulation recording are performed to examine the relaxation to the resting state.
Data are analyzed and reported as normalized ratios of background-subtracted emission intensities measured in the 460 nm and 580 nm channels. Background intensities are then subtracted from each assay channel. Background intensities are obtained by measuring the emission intensities during the same time periods from identically treated assay wells in which there are no cells. The response as a function of time is then reported as the ratios obtained using the following formula: […]
The data is further reduced by calculating the initial (Ri) and final (Rf) ratios. These are the average ratio values during part or all of the pre-stimulation period, and during sample points during the stimulation period. The response to the stimulus ? =Rf/Ri is then calculated.
Control responses are obtained by performing assays in the presence of a compound with the desired properties (positive control), such as tetracaine, and in the absence of pharmacological agents (negative control). Responses to the negative (N) and positive (P) controls are calculated as above. The compound antagonist activity A is defined as:
[formula] where R is the ratio response of the test compound.

Sequence of NaV1.3 (Q9NY46 whole entry): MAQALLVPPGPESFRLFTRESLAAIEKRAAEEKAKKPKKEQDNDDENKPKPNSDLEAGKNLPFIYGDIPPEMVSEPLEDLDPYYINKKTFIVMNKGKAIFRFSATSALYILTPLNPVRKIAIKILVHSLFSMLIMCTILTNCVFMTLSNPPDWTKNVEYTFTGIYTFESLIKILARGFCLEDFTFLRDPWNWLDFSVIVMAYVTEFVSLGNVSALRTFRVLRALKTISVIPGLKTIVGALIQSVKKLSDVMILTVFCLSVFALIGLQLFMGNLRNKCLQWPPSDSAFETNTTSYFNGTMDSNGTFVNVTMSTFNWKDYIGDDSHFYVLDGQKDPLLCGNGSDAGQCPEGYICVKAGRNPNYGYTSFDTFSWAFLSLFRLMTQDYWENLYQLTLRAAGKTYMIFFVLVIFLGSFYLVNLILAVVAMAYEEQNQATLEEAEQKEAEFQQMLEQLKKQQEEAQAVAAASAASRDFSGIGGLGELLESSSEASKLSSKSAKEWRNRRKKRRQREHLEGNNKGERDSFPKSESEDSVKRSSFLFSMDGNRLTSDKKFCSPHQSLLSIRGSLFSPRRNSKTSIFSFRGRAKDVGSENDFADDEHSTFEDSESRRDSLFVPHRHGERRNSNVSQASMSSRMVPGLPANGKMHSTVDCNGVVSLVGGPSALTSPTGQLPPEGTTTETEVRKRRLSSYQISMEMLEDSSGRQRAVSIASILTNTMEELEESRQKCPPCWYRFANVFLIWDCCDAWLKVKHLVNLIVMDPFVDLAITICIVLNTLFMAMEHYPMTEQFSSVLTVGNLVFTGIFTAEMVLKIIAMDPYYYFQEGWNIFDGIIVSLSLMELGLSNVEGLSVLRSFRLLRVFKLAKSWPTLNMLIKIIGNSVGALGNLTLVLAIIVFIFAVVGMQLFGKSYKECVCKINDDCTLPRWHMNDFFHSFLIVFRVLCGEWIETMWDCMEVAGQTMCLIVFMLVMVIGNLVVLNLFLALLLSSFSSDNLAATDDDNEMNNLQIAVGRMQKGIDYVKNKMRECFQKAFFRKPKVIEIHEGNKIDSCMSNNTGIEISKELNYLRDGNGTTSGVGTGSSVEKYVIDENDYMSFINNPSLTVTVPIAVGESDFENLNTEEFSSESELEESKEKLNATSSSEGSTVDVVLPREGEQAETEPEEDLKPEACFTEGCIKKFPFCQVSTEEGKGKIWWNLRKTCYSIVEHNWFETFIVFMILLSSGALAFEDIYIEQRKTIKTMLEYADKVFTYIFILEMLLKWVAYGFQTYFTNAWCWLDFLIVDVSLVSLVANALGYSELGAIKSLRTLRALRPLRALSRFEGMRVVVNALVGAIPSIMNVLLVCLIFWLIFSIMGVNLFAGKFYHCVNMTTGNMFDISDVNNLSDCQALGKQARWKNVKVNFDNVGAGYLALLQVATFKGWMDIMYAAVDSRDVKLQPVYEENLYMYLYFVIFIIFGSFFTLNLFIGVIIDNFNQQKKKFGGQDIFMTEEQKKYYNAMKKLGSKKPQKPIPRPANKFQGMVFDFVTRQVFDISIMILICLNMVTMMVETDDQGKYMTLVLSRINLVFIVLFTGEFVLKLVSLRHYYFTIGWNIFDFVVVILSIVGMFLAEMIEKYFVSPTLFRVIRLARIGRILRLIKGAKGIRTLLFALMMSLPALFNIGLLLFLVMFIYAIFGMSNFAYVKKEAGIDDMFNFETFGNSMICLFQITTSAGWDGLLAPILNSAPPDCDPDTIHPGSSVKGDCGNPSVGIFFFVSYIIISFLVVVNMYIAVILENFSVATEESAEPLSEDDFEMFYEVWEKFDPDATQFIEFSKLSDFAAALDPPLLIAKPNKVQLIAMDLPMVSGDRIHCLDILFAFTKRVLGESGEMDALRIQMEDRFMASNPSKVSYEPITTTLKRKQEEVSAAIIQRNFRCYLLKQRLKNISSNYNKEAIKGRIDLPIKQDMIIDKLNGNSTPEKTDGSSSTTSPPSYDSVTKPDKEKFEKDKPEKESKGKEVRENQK

SMILES | IC50 [nM]
O=C(CN1CCCc2ccccc21)N1CCCc2cc(S(=O)(=O)Nc3nccs3)ccc21 [Compound 101] | > 5000
O=C(COc1ccc(F)cc1)N1CCc2cc(S(=O)(=O)Nc3nccs3)ccc21 [Compound 14] | < 2000
O=C(COc1ccccc1)N1CCc2ccc(S(=O)(=O)Nc3nccs3)cc2C1 [Compound 12] | > 5000
COc1cccc(NCC(=O)N2CCc3cc(S(=O)(=O)Nc4nccs4)ccc32)c1 [Compound 165] | > 5000
CC(C(=O)n1ccc2cc(S(=O)(=O)Nc3nccs3)ccc21)n1ccc2ccccc21 (stereo not shown) [Compound 201] | > 5000
O=C(COc1ccc(OC(F)(F)F)cc1)N1CCc2ccc(S(=O)(=O)Nc3nccs3)cc2C1 [Compound 52] | > 5000
O=C(c1ccccc1F)N1CCc2cc(S(=O)(=O)Nc3ncns3)ccc21 [Compound 34] | > 5000
O=C(c1ccccc1F)N1CCCc2cc(S(=O)(=O)Nc3nccs3)ccc21 [Compound 96] | > 5000
O=C(Cn1ccc2cccc(Cl)c21)N1CCc2ccc(S(=O)(=O)Nc3nccs3)cc2C1 [Compound 69] | > 5000
CC1CN(CC(=O)N2CCc3cc(S(=O)(=O)Nc4nccs4)ccc32)CC(C)O1 (stereo not shown) [Compound 85] | > 5000
CC(Oc1ccccc1)C(=O)N1CCc2ccc(S(=O)(=O)Nc3nccs3)cc2C1 (stereo not shown) [Compound 8] | > 5000
Cc1ccc(C(=O)n2ccc3cc(S(=O)(=O)Nc4nccs4)ccc32)cc1Cl [Compound 191] | > 5000
COc1ccc(NCCN2CCc3cc(S(=O)(=O)Nc4nccs4)ccc32)cc1 [Compound 100] | > 5000
O=C(CNC1CCC1)N1CCc2cc(S(=O)(=O)Nc3nccs3)ccc21 [Compound 161] | > 5000
O=C(COc1ccc(Cl)c(Cl)c1)n1ccc2cc(S(=O)(=O)Nc3nccs3)ccc21 [Compound 19] | > 5000
C[C@H](C(=O)N1Cc2ccc(S(=O)(=O)Nc3ccc(Cl)nn3)cc2C1)N1CCCc2cc(Cl)ccc21 [Compound 146] | > 5000
O=C(Oc1ccc(Cl)cc1)N1CCc2cc(S(=O)(=O)Nc3nccs3)ccc21 [Compound 117] | > 5000
O=C(c1ccccc1C(F)(F)F)n1ccc2cc(S(=O)(=O)Nc3nccs3)ccc21 [Compound 176] | 2000 to 5000
COc1ccc(OC(=O)N2CCc3cc(S(=O)(=O)Nc4nccs4)ccc32)cc1 [Compound 80] | > 5000
Cc1ccc(OCC(=O)N2CCc3ccc(S(=O)(=O)Nc4nccs4)cc3C2)cc1 [Compound 25] | > 5000
O=C(COc1ccnc2c(C(F)(F)F)cccc12)N1CCc2ccc(S(=O)(=O)Nc3nncs3)cc2C1 [Compound 45] | > 5000
O=C(c1ccc(F)cc1)N1CCCc2cc(S(=O)(=O)Nc3nccs3)ccc21 [Compound 114] | > 5000
O=S(=O)(Nc1nccs1)c1ccc2c(c1)CCN2CCNc1nc2ccccc2s1 [Compound 157] | > 5000
O=C(c1ccccc1F)N1CCc2ccc(S(=O)(=O)Nc3nccs3)cc2C1 [Compound 123] | 2000 to 5000
O=C(c1ccc(F)c(F)c1F)N1CCc2cc(S(=O)(=O)Nc3ncns3)ccc21 [Compound 6] | 2000 to 5000
CC(Oc1ccccc1Cl)C(=O)n1ccc2cc(S(=O)(=O)Nc3nccs3)ccc21 (stereo not shown) [Compound 160] | 2000 to 5000

Second part, the molecule after the results:

IC50 [nM] | SMILES
< 2000 | O=C(CCn1ccc2cc(Cl)ccc21)N1CCc2cc(S(=O)(=O)Nc3ncns3)ccc21 [Compound 172]
< 2000 | O=C(COc1ccc(Cl)cc1)N1CCc2cc(S(=O)(=O)Nc3ncns3)ccc21 [Compound 147]
< 2000 | Cc1ccc(OCC(=O)N2CCc3cc(S(=O)(=O)Nc4nccs4)ccc32)cc1 [Compound 181]
< 2000 | O=C(CN1CCCc2cc(Cl)ccc21)N1Cc2ccc(S(=O)(=O)Nc3ncns3)cc2C1 [Compound 120]
< 2000 | O=C(CCCOc1ccc(Cl)cc1Cl)N1CCCc2cc(S(=O)(=O)Nc3nccs3)ccc21 [Compound 180]
< 2000 | O=C(N1CCc2cc(S(=O)(=O)Nc3nccs3)ccc21)C1(c2ccccc2)CC1 [Compound 54]
< 2000 | C[C@H](C(=O)N1CCc2cc(S(=O)(=O)Nc3nccs3)ccc21)n1ccc2ccccc21 [Compound 87]
< 2000 | O=C(Cc1ccc(F)cc1F)N1CCc2cc(S(=O)(=O)Nc3nccs3)ccc21 [Compound 196]
2000 to 5000 | O=C(Oc1cccc(C(F)(F)F)c1)N1CCc2cc(S(=O)(=O)Nc3nccs3)ccc21 [Compound 106]
2000 to 5000 | Cc1nnc(NS(=O)(=O)c2ccc3c(c2)CN(C(=O)[C@@H](C)N2CCCc4cc(Cl)ccc42)C3)s1 [Compound 98]
< 2000 | O=C(CCCOc1ccc(Cl)cc1Cl)N1CCc2cc(S(=O)(=O)Nc3ncns3)ccc21 [Compound 33]
2000 to 5000 | O=C(COc1ccc(F)c(Cl)c1)N1CCCc2cc(S(=O)(=O)Nc3ncns3)ccc21 [Compound 36]
< 2000 | O=C(CNc1ccccc1F)N1CCc2cc(S(=O)(=O)Nc3nccs3)ccc21 [Compound 144]
< 2000 | O=C(CCc1ccccc1)n1ccc2cc(S(=O)(=O)Nc3nccs3)ccc21 [Compound 189]
< 2000 | O=C(CNc1cccc(F)c1)N1CCc2cc(S(=O)(=O)Nc3nccs3)ccc21 [Compound 198]
2000 to 5000 | Cc1ccc2c(c1)CCCN2CC(=O)N1CCc2cc(S(=O)(=O)Nc3nccs3)ccc21 [Compound 64]
< 2000 | Cc1ccc(CC(=O)N2CCc3cc(S(=O)(=O)Nc4nccs4)ccc32)cc1 [Compound 26]
< 2000 | O=C(COc1ccccc1)N1Cc2ccc(S(=O)(=O)Nc3nccs3)cc2C1 [Compound 199]

IC50 [nM] | SMILES
< 2000 | COc1cccc(CCC(=O)n2ccc3cc(S(=O)(=O)Nc4nccs4)ccc32)c1 [Compound 18]
< 2000 | C[C@H](C(=O)N1CCc2cc(S(=O)(=O)Nc3ncns3)ccc21)n1ccc2ccccc21 [Compound 202]
2000 to 5000 | O=C(c1ccc(Cl)cc1Cl)N1CCc2ccc(S(=O)(=O)Nc3nccs3)cc2C1 [Compound 151]
2000 to 5000 | COc1cc(C(=O)N2CCc3cc(S(=O)(=O)Nc4nccs4)ccc32)ccc1C [Compound 178]
2000 to 5000 | O=C(c1ccc(F)cc1)N1Cc2ccc(S(=O)(=O)Nc3nccs3)cc2C1 [Compound 3]
< 2000 | CC(Oc1ccccc1Cl)C(=O)N1CCc2cc(S(=O)(=O)Nc3nccs3)ccc21 (stereo not shown) [Compound 148]
< 2000 | CC(C(=O)N1CCc2cc(S(=O)(=O)Nc3nccs3)ccc21)n1ccc2ccccc21 (stereo not shown) [Compound 204]
< 2000 | CC(Oc1ccc(OC(F)(F)F)cc1)C(=O)N1Cc2ccc(S(=O)(=O)Nc3nccs3)cc2C1 (stereo not shown) [Compound 186]
< 2000 | CC(C)(C)c1ccc(OCC(=O)N2Cc3ccc(S(=O)(=O)Nc4nccs4)cc3C2)cc1 [Compound 155]
< 2000 | O=C(COc1ccnc2c(C(F)(F)F)cccc12)N1CCc2cc(S(=O)(=O)Nc3ncns3)ccc21 [Compound 71]
< 2000 | CC(Oc1ccccc1Cl)C(=O)N1CCc2cc(S(=O)(=O)Nc3ncns3)ccc21 (stereo not shown) [Compound 185]
< 2000 | COc1ccc(CCC(=O)N2CCc3cc(S(=O)(=O)Nc4nccs4)ccc32)cc1 [Compound 159]
< 2000 | Cc1ccccc1CC(=O)N1CCc2cc(S(=O)(=O)Nc3nccs3)ccc21 [Compound 107]
< 2000 | CC(C(=O)N1Cc2ccc(S(=O)(=O)Nc3nccs3)cc2C1)n1ccc2ccccc21 (stereo not shown) [Compound 17]
< 2000 | O=C(Cn1ccc2cccc(Cl)c21)N1Cc2ccc(S(=O)(=O)Nc3ccncn3)cc2C1 [Compound 56]
< 2000 | CC(C)(Oc1ccc(Cl)cc1)C(=O)N1CCc2cc(S(=O)(=O)Nc3nccs3)ccc21 [Compound 9]
< 2000 | C[C@H](C(=O)N1CCc2cc(S(=O)(=O)Nc3nccs3)ccc21)n1ccc2ccccc21 [Compound 20]
